The source of these data is article PMC8384862, “Identification of new target proteins of a Urotensin-II receptor antagonist using transcriptome-based drug repositioning approach” (Scientific Reports, 2021).

In this experiment the target is T1, sodium-dependent serotonin transporter (Homo sapiens, UniProt P31645).
T1 construct: gene SLC6A4; human recombinant, CHO cell membrane
Put plainly: radioligand displacement of [3H]imipramine on recombinant CHO cell membranes, single dose […]. The experiment is classed as binding. For orientation: Loss of bound radioactivity is the signal in a displacement assay; it reports binding, not function.

SMILES strings stand for the structures. Counter-ions that a name gives are not always drawn.

T1 sequence (P31645 whole entry): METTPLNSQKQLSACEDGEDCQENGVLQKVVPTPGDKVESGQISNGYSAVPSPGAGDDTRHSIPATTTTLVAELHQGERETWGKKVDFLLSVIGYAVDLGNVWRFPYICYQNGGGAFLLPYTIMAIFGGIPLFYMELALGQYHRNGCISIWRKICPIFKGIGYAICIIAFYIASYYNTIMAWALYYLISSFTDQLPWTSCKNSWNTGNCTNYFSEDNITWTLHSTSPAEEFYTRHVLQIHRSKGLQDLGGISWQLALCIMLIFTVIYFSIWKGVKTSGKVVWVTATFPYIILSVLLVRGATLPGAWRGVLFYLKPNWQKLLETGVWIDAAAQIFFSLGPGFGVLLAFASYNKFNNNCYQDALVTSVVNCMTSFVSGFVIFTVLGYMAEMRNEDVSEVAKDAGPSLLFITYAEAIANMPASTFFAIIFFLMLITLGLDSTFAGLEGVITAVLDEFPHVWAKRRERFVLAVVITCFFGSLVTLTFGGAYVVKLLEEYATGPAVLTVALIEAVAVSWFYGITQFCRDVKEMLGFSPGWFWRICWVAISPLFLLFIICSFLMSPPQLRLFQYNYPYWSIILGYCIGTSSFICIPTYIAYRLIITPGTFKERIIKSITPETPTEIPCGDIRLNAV

What is called inhibition is the percentage by which the read-out fell short of the control. As for `CN(C)c1cccc(NC(=O)N2CCN(Cc3ccc(OC4CCNCC4)c(Br)c3)CC2)c1` [KR-37524, 4-(3-bromo-4-(piperidin-4-yloxy)benzyl)-N-(3-(dimethylamino)phenyl)piperazine-1-carboxamide dihydrochloride], the inhibition at 10 µM is above 50%.
